# Measurements reported in ChEMBL document CHEMBL3639166, “Heteroaryloxyheterocyclyl compounds as PDE10 inhibitors” (2013).
# Target: T1, cAMP and cAMP-inhibited cGMP 3',5'-cyclic phosphodiesterase 10A (Rattus norvegicus, UniProt Q9QYJ6)
# T1 sequence (Q9QYJ6 whole entry): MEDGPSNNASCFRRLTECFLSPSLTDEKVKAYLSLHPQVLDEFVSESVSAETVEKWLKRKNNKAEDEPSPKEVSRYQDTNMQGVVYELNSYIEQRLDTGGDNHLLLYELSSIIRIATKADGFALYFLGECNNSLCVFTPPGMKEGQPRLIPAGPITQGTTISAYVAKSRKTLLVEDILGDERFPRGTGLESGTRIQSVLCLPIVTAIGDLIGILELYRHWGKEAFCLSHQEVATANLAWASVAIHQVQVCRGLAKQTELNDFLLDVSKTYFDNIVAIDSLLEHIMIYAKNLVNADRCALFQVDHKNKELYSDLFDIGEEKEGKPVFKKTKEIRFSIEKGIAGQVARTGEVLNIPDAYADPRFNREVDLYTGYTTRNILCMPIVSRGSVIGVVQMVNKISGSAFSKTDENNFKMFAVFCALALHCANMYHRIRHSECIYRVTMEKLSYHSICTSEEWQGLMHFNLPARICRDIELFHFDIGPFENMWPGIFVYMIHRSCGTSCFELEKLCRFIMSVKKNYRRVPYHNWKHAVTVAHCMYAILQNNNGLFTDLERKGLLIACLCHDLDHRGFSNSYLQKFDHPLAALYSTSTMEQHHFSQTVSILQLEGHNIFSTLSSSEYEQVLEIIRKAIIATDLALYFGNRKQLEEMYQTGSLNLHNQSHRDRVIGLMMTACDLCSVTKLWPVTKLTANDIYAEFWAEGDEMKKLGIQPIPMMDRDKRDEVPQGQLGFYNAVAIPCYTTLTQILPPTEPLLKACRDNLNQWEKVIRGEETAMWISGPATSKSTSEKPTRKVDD
# Experiment: Enzyme Inhibition Assay: Enzyme activity: An IMAP TR-FRET assay was used to analyze the enzyme activity (Molecular Devices Corp., Sunnyvale, Calif).
row,IC50 [nM],Compound
1,2.3,OCC1CCN(c2nccnc2OC2CN(c3ccc4ccccc4n3)C2)CC1
2,37.8,OCC1CCN(c2nccnc2OC2CN(c3cnc4ccccc4n3)C2)CC1
3,26.1,OC1CCN(c2nccnc2OC2CN(c3ccc4ccccc4n3)C2)CC1
4,520,CN(C)C1CCN(c2nccnc2OC2CN(c3ccc4ccccc4n3)C2)CC1
5,198,OC1CCN(c2nccnc2OC2CCN(c3ccc4ccccc4n3)CC2)CC1
6,254,c1ccc2nc(N3CCC(Oc4nccnc4N4CCOCC4)CC3)ccc2c1
7,356,O[C@@H]1CCN(c2nccnc2OC2CCN(c3ccc4ccccc4n3)CC2)C1
8,198,O[C@H]1CCN(c2nccnc2OC2CCN(c3ccc4ccccc4n3)CC2)C1
9,1220,OC1CN(c2nccnc2OC2CCN(c3ccc4ccccc4n3)CC2)C1
10,403,c1ccc2nc(N3CCC(Oc4nccnc4N4CCCCC4)CC3)ccc2c1
11,286,c1ccc2nc(N3CCC(Oc4nccnc4N4CCCC4)CC3)ccc2c1
12,273,c1ccc2nc(N3CCC(Oc4nccnc4N4CCC4)CC3)ccc2c1
13,345,c1ccc2nc(N3CCC(Oc4nccnc4N4CC5(COC5)C4)CC3)ccc2c1
14,43.6,c1ccc2nc(N3CC(Oc4nccnc4N4CCC5(CC4)COC5)C3)ccc2c1
15,314,C1=CCN(c2nccnc2OC2CN(c3ccc4ccccc4n3)C2)CC1
16,86.1,c1ccc2nc(N3CC(Oc4nccnc4N4CCC4)C3)ccc2c1
17,334,c1ccc2nc(N3CC(Oc4nccnc4N4CCCCCC4)C3)ccc2c1
18,150,OC[C@H]1CCCN1c1nccnc1OC1CN(c2ccc3ccccc3n2)C1
19,44.6,c1ccc2nc(N3CC(Oc4nccnc4N4CCCOCC4)C3)ccc2c1

row,IC50 [nM],Compound
1,29.5,OC1CCCN(c2nccnc2OC2CN(c3ccc4ccccc4n3)C2)CC1 (configuration not stated)
2,2990,CN1CCCN(c2nccnc2OC2CN(c3ccc4ccccc4n3)C2)CC1
3,20,OCC1CCN(c2nccnc2NC2CN(c3ccc4ccccc4n3)C2)CC1
4,683,CN1CCN(c2nccnc2OC2CN(c3ccc4ccccc4n3)C2)CC1
5,40.6,OCC1CCCN(c2nccnc2OC2CN(c3ccc4ccccc4n3)C2)C1 (configuration not stated)
6,67,OC1CCN(c2nccnc2OC2CN(c3ccc4ccccc4n3)C2)C1 (configuration not stated)
7,62.8,CC1CN(c2nccnc2OC2CN(c3ccc4ccccc4n3)C2)CCO1 (configuration not stated)
8,1.52,Cc1cnc(OC2CN(c3ccc4ccccc4n3)C2)c(N2CCC(CO)CC2)c1
9,46.9,CC(O)C1CCN(c2nccnc2OC2CN(c3ccc4ccccc4n3)C2)CC1 (configuration not stated)
10,1270,CC(=O)N1CC2(C1)CN(c1nccnc1OC1CCN(c3ccc4ccccc4n3)CC1)C2
11,1120,COCC1CCN(c2nccnc2OC2CCN(c3ccc4ccccc4n3)CC2)CC1
12,195,O=C1CCN(c2nccnc2OC2CCN(c3ccc4ccccc4n3)CC2)CC1
13,110,O=C1CCN(c2nccnc2OC2CN(c3ccc4ccccc4n3)C2)CC1
14,85.8,CC(C)(O)C1CCN(c2nccnc2OC2CCN(c3ccc4ccccc4n3)CC2)CC1
15,83.6,CC(C)(O)C1CCN(c2nccnc2OC2CN(c3ccc4ccccc4n3)C2)CC1
16,34.7,Cc1cnccc1-c1nccnc1OC1CCN(c2ccc3ccccc3n2)CC1
17,118,COc1ncccc1-c1nccnc1OC1CCN(c2ccc3ccccc3n2)CC1
18,83.9,Clc1cnccc1-c1nccnc1OC1CCN(c2ccc3ccccc3n2)CC1

# Continued, molecule first:
row,Compound,IC50 [nM]
1,OCC1CCN(c2cncc(OC3CN(c4ccc5ccccc5n4)C3)n2)CC1,0.639
2,OCC1CCN(c2nccnc2O[C@@H]2CCN(c3ccc4ccccc4n3)C2)CC1,167
3,OCC1CCN(c2nccnc2O[C@H]2CCN(c3ccc4ccccc4n3)C2)CC1,78
4,OCC1CCN(c2nc3ccccc3nc2OC2CN(c3ccc4ccccc4n3)C2)CC1,9.75
5,CC1CCN(c2nccnc2OC2CN(c3ccc4ccccc4n3)C2)CC1,124
6,Cc1ccc(-c2nccnc2OC2CN(c3ccc4ccccc4n3)C2)cc1,98.7
7,CNC(=O)c1ccc(-c2nccnc2OC2CN(c3ccc4ccccc4n3)C2)cc1,15
8,N#Cc1ccc(-c2nccnc2OC2CN(c3ccc4ccccc4n3)C2)cc1,39.4
9,c1ccc(-c2nccnc2OC2CN(c3ccc4ccccc4n3)C2)nc1,1220
10,c1ccc2nc(N3CC(Oc4nccnc4-c4ccncc4)C3)ccc2c1,24.5
11,Cc1ncccc1-c1nccnc1OC1CN(c2ccc3ccccc3n2)C1,135
12,N#CC1CCN(c2cccnc2OC2CN(c3ccc4ccccc4n3)C2)CC1,68.9
13,c1ccc2nc(N3CC(Oc4nccnc4N4CCCC4)C3)ccc2c1,10000
14,OCC1CCN(c2ccc(Br)c(OC3CN(c4ccc5ccccc5n4)C3)n2)CC1,0.229
15,OCC1CCN(c2ncc(Cl)c(OC3CN(c4ccc5ccccc5n4)C3)n2)CC1,10
16,OCC1CCN(c2ncc(F)c(OC3CN(c4ccc5ccccc5n4)C3)n2)CC1,20
17,OCC1CCN(c2ncc(Br)c(OC3CN(c4cnc5ccccc5n4)C3)n2)CC1,24.2
18,OC1CCN(c2ncc(Br)c(OC3CN(c4ccc5ccccc5n4)C3)n2)CC1,73.7
19,COC(=O)C1CCN(c2ncc(Br)c(OC3CN(c4ccc5ccccc5n4)C3)n2)CC1,1340
20,CC1CCN(c2ncc(Br)c(OC3CN(c4ccc5ccccc5n4)C3)n2)CC1,358

row,Compound,IC50 [nM]
1,OCC1CCN(c2ncc(Br)c(OC3CN(c4ccc5ccccc5n4)C3)n2)C1 (configuration not stated),20.6
2,OCC1CCN(c2ncc(Br)c(OC3CN(c4ncc5ccccc5n4)C3)n2)CC1,14.6
3,N#CC1CCN(c2nc3ccccc3nc2OC2CN(c3ccc4ccccc4n3)C2)CC1,19.2
4,CN1CCN(c2nccnc2OC2CN(c3ccc4ccccc4n3)C2)CC1=O,33.9
5,c1ccc2nc(N3CC(Oc4nccnc4N4CCC(N5CCCC5)CC4)C3)ccc2c1,571
6,OCC1CN(c2nccnc2OC2CN(c3ccc4ccccc4n3)C2)CCO1 (configuration not stated),88.6
7,O=C(c1nc2ccccc2[nH]1)N1CC(Oc2nccnc2N2CCOCC2)C1,377
8,CC(=O)N1CCN(c2nccnc2OC2CN(C(=O)c3nc4ccccc4[nH]3)C2)CC1,637
9,O=C(c1nc2ccccc2[nH]1)N1CC(Oc2nccnc2N2CCC(O)CC2)C1,186
10,N#CC1CCN(c2cc(F)cnc2OC2CN(c3ccc4ccccc4n3)C2)CC1,15.1
11,OCC1CCN(c2ncc(Br)c(OC3CN(c4ccc5ccccc5n4)C3)n2)CC1,7
12,OCC1CCCN(c2ncc(Br)c(OC3CN(c4ccc5ccccc5n4)C3)n2)C1 (configuration not stated),60
13,OCC1CCCCN1c1ncc(Br)c(OC2CN(c3ccc4ccccc4n3)C2)n1 (configuration not stated),260
14,OCC1CCN(c2ncc(N3CCCCC3)c(OC3CN(c4ccc5ccccc5n4)C3)n2)CC1,18.4
15,CC(O)C1CCN(c2ncc(Br)c(OC3CN(c4ccc5ccccc5n4)C3)n2)CC1 (configuration not stated),242
16,CC(=O)N1CCN(c2nccnc2OC2CN(c3ccc4ccccc4n3)C2)CC1,77.5
17,COC1CCN(c2nccnc2OC2CCN(c3ccc4ccccc4n3)CC2)CC1,59.6
18,c1ccc2nc(N3CCC(Oc4nccnc4-c4ccncc4)CC3)ccc2c1,35.7
19,Cc1cnccc1-c1nccnc1OC1CN(c2ccc3ccccc3n2)C1,298
20,Clc1cnccc1-c1nccnc1OC1CN(c2ccc3ccccc3n2)C1,155

row,Compound,IC50 [nM]
1,Cc1ccccc1-c1nccnc1OC1CN(c2ccc3ccccc3n2)C1,128
2,COc1ccccc1-c1nccnc1OC1CN(c2ccc3ccccc3n2)C1,150
3,Fc1cc(-c2nccnc2OC2CN(c3ccc4ccccc4n3)C2)ccn1,39.5
4,N#Cc1ccccc1-c1nccnc1OC1CN(c2ccc3ccccc3n2)C1,377
5,Cc1cc(F)ccc1-c1nccnc1OC1CN(c2ccc3ccccc3n2)C1,918
6,CN(C)C(=O)c1ccc(-c2nccnc2OC2CN(c3ccc4ccccc4n3)C2)cc1,15
7,CC(=O)c1cccc(-c2nccnc2OC2CN(c3ccc4ccccc4n3)C2)c1,11.2
8,CN(C)C(=O)c1cccc(-c2nccnc2OC2CN(c3ccc4ccccc4n3)C2)c1,22.8
9,N#Cc1ccc(-c2nccnc2OC2CN(c3ccc4ccccc4n3)C2)cn1,50.6
10,Cc1cc(-c2nccnc2O[C@@H]2CCN(c3ccc4ccccc4n3)C2)ccn1,255
11,Cc1cc(-c2nccnc2O[C@H]2CCN(c3ccc4ccccc4n3)C2)ccn1,639
12,c1cncc(-c2nccc(OC3CN(c4ccc5ccccc5n4)C3)n2)c1,35.6
13,Nc1ccc(-c2nccc(OC3CN(c4ccc5ccccc5n4)C3)n2)cc1,110
14,Fc1ccc(-c2nccnc2OC2CN(c3ccc4ccccc4n3)C2)cn1,45.7
15,Cc1ccncc1-c1nccnc1OC1CN(c2ccc3ccccc3n2)C1,251
16,COc1cccc(-c2nccnc2OC2CN(c3ccc4ccccc4n3)C2)c1,19
17,COc1cccc(-c2nccnc2OC2CN(c3ncc4ccccc4n3)C2)c1,148
18,COc1ncccc1-c1nccnc1OC1CN(c2ncc3ccccc3n2)C1,178
19,Cc1cccc(-c2nc3ccccc3nc2OC2CN(c3ccc4ccccc4n3)C2)c1,53.5
20,C1=C(c2nccnc2OC2CN(c3ccc4ccccc4n3)C2)CCOC1,14.9
